# According to PMC10134273 (Cancer Medicine, 2023):
# System: advanced solid tumors
# Test: Tumor response per RECIST v1.1
# Type: in vivo, human
# [1] = 40 mg BID (N=3) + pembrolizumab
# [2] = 60 mg BID (N=3) + pembrolizumab
# [3] = 80 mg BID (N=6) + pembrolizumab
# [4] = 80 mg BID group + pembrolizumab
# [5] = 100 mg BID (N=7) + pembrolizumab
# Experimental: Secondary endpoints included PK parameters (e.g., maximum observed concentration [C max] and area under the concentration‐time curve [AUC]). Secondary endpoints included objective response rate (ORR), disease control rate (DCR), and duration of response (DOR) as assessed by investigator per RECIST v1.1. Tumor responses were assessed according to RECIST v1.1; computerized tomography scanning or magnetic resonance imaging was performed every 6 weeks in the first 48 weeks, and every 12 weeks thereafter. Secondary endpoints also included safety and tolerability (adverse events [AEs] as defined by the National Cancer Institute‐Common Terminology Criteria for Adverse Events CTCAE v5.0) and exploratory biomarkers (total bile acids, 7‐α‐hydroxy‐4‐cholesten‐3‐one [C4] and circulating FGF19). Safety follow‐up visit was performed within 30 days (±5 days) and 90 days (±7 days) after the last dose of the study treatment.
# All patients who received at least one dose of the study treatment in the Phase 1 part of the study were included in the safety and efficacy analyses. Dose escalation and MTD assessment were primarily based on DLTs which occurred within the 28‐day observation period. Descriptive statistics were used for demographics, safety, and efficacy data. The number of patients who experienced DLTs (within and outside of the 28‐day DLT assessment period) was tabulated for each dose level. The sample size of patients required for dose escalation were determined based on the ‘3+3’ design and DLTs observed as the trial progressed.
smiles,measurement,setting,value
"COCCNc1cc(NC(=O)N2CCCc3cc(CN4CCN(C)CC4=O)c(C=O)nc32)ncc1C#N [EVER4010001, roblitinib]",Best overall response: Complete response,[1],0 n (%)
same,Best overall response: Not evaluable,[1],0 n (%)
same,Best overall response: Partial response,[1],0 n (%)
same,Best overall response: Progressive disease,[1],1 (33.3) n (%)
same,Best overall response: Stable disease,[1],2 (66.7) n (%)
same,Disease control rate (CR+PR+SD),[1],2 (66.7) n (%)
same,Objective response (CR+PR),[1],0 n (%)
same,DCR,40 mg BID group + pembrolizumab,66.7%
same,Best overall response: Complete response,[2],0 n (%)
same,Best overall response: Not evaluable,[2],0 n (%)
same,Best overall response: Partial response,[2],0 n (%)
same,Best overall response: Progressive disease,[2],2 (66.7) n (%)
same,Best overall response: Stable disease,[2],1 (33.3) n (%)
same,Disease control rate (CR+PR+SD),[2],1 (33.3) n (%)
same,Objective response (CR+PR),[2],0 n (%)
same,DCR,60 mg BID group + pembrolizumab,33.3%
same,Best overall response: Complete response,[3],0 n (%)
same,Best overall response: Not evaluable,[3],1 (16.7) n (%)
same,Best overall response: Partial response,[3],1 (16.7) n (%)
same,Best overall response: Progressive disease,[3],2 (33.3) n (%)
same,Best overall response: Stable disease,[3],2 (33.3) n (%)
same,Disease control rate (CR+PR+SD),[3],3 (50.0) n (%)
same,Objective response (CR+PR),[3],1 (16.7) n (%)
same,DCR,[4],50%
same,ORR,[4],16.7%
same,Best overall response: Complete response,[5],0 n (%)
same,Best overall response: Not evaluable,[5],1 (14.3) n (%)
same,Best overall response: Partial response,[5],0 n (%)
same,Best overall response: Stable disease,[5],0 n (%)
same,Disease control rate (CR+PR+SD),[5],0 n (%)
same,Objective response (CR+PR),[5],0 n (%)
same,DCR,100 mg BID group + pembrolizumab,0%
same,ORR,"across all doses, + pembrolizumab",5.3%
